One assay addresses EGFR (Homo sapiens, UniProt P00533). As to the kind of experiment: EGFR kinase inhibitory activity (ADP-Glo Kinase Assay). For orientation: ADP-Glo turns the ADP formed in a reaction into a luminescent signal.
The subject of a further assay is T-47D. As to the kind of experiment: MTT anti-proliferative assay, T-47D. The format is cell-based, human. To be noted: 48 h exposure, mean ± S.D. of 3 separate experiments. The method, then:
(§1) The cytotoxic effects of herein prepared pyrazole- thiazol-4-one hybrids 9a-p against BC MDA-MB-231 and T-47D cell lines, obtained from American Type Culture Collection (ATCC), were determined using the MTT assay protocol. It is worth to mention that the selected cancer cell lines in this study are EGFR-expressing cell lines[25]–[28]. Doxorubicin and Erolitinib were utilized as positive control (Table 1).
(§2) All the biological assays conducted in this study were performed as reported earlier; MTT cytotoxicity[31],[32] cell cycle, Annexin V-FITC Apoptosis[34]–[36] and EGFR kinase[37] assays, (Supplementary Materials).
(§3) 1. Anti-proliferative activity
(§4) The two examined breast cancer cell lines (MDA-MB-231 and T-47D) as well as the normal breast MCF-10A cells have been obtained from American Type Culture Collection (ATCC). Cells lines were maintained as monolayers in Dulbecco’s Modified Eagle’s Medium (DMEM) supplemented with 10% FBS, 2 mM L-glutamine, 100 U/ml penicillin and 100µg/ml streptomycin sulfate. Cells were sub-cultured with trypsine /EDTA solution, counted with haemocytometer and plated onto 96-well plates (5000 cells/well) and left overnight to form a semi-confluent monolayer.
(§5) Cell monolayers were treated in quadrates with vehicle (DMSO, 0.1% v/v), test samples (thiazolyl-pyrazolines 9a-p) or Doxorubicin as positive control for an exposure time of 48 h. At the end of exposure, MTT solution in PBS (5 mg/ml) was then added to all well including no cell blank and left to incubate for 90 min. The formation of formazan crystals were visually confirmed using phase contract microscopy. DMSO (100 µl/well) was added to dissolve the formazan crystals with shaking for 10 min after which the absorbance was read at 590 nm against no cell blanks on a FLuo Star Optima microplate reader (BMG technologies, Germany). Cell proliferation was calculated comparing the OD values of the DMSO control wells and those of the samples represented as % proliferation to the control. Dose-response experiment was performed on samples producing > or =50% loss of cell proliferation using five serial 2-fold dilutions (50, 25, 12.5, 6.25 and 3.125 µM) of the sample. IC50 values (concentration of sample causing 50% loss of cell proliferation of the vehicle control) were calculated using non-linear regression curve fitting of the dose response plots on GraphPad Prism V.6.0 software. […]

The subject of assay [1] is MDA-MB-231 cells. Briefly: Annexin V-FITC/PI apoptosis assay. The format is cell-based, human. The note with it: at IC50 concentration (9g 0.62 µM, 9k 1.14 µM), 48 h; for Late apoptosis (upper right %): control 0.21%; for Early apoptosis (lower right %): control 0.73%; for Total apoptosis (L.R % + U.R %): control 0.94%. The method, then:
as §2
3. Annexin V-FITC Apoptosis Assay
Phosphatidylserine externalization was assayed using Annexin V-FITC/PI apoptosis detection kit (BD Biosciences, USA) according to the manufacturer’s instructions. Breast cancer MDA-MB-231 cells were cultured to a monolayer then treated with compounds 9g and 9k at their IC50 concentration. Briefly, cells were then harvested via trypsinization, and rinsed twice in PBS followed by binding buffer. Moreover, cells were re-suspended in 100 μL of binding buffer with the addition of 1 μL of FITC-Annexin V followed by an incubation period of 30 min at 4 °C. Cells were then rinsed in binding buffer and resuspended in 150 μL of binding buffer with the addition

Another assay deals with MCF-10A. Briefly: MTT cytotoxicity toward normal breast MCF-10A cells. The format is cell-based. The note with it: Homo sapiens, 48 h exposure, mean ± S.D. of 3 separate experiments. The method, then:
as §2, §3, §4, §5

The test system of assay [2] is MDA-MB-231 cells. Briefly: Cell cycle analysis by PI flow cytometry. In kind it is cell-based, human. The note with it: at IC50 concentration (9g 0.62 µM, 9k 1.14 µM), 24 h; for %Sub-G1: control 2.13%; for %S: control 32.11%. The procedure: All the biological assays conducted in this study were performed as reported earlier; MTT cytotoxicity[31],[32] cell cycle, Annexin V-FITC Apoptosis[34]–[36] and EGFR kinase[37] assays, (Supplementary Materials). […]
The two examined breast cancer cell lines (MDA-MB-231 and T-47D) as well as the normal breast MCF-10A cells have been obtained from American Type Culture Collection (ATCC). Cells lines were maintained as monolayers in Dulbecco’s Modified Eagle’s Medium (DMEM) supplemented with 10% FBS, 2 mM L-glutamine, 100 U/ml penicillin and 100µg/ml streptomycin […]
sulfate. […]
Breast cancer MDA-MB-231 cells were treated with compounds 9g and 9k for 24 h (at their IC50 concentration), and then cells were washed twice with ice-cold phosphate buffered saline (PBS). Subsequently, the treated cells were collected by centrifugation, fixed in ice-cold 70% (v/v) ethanol, washed with PBS, re-suspended with 100 μg/mL RNase, stained with 40 μg/mL PI, and analyzed by flow cytometry using FACS Calibur (Becton Dickinson, BD, Franklin Lakes, NJ, USA). The cell cycle distributions were calculated using CellQuest software 5.1 (Becton
For orientation: A flow cytometer gives signals particle by particle.

The next assay relates to MDA-MB-231. As to the kind of experiment: MTT anti-proliferative assay, MDA-MB-231. In kind it is cell-based, human. The note with it: mean ± S.D. of 3 separate experiments. The procedure: as §1, §2, §3, §4, §5
Setting [3] is: Homo sapiens, MDA-MB-231, 48 h, 48 h exposure.

Chain of EGFR (P00533 25-1210): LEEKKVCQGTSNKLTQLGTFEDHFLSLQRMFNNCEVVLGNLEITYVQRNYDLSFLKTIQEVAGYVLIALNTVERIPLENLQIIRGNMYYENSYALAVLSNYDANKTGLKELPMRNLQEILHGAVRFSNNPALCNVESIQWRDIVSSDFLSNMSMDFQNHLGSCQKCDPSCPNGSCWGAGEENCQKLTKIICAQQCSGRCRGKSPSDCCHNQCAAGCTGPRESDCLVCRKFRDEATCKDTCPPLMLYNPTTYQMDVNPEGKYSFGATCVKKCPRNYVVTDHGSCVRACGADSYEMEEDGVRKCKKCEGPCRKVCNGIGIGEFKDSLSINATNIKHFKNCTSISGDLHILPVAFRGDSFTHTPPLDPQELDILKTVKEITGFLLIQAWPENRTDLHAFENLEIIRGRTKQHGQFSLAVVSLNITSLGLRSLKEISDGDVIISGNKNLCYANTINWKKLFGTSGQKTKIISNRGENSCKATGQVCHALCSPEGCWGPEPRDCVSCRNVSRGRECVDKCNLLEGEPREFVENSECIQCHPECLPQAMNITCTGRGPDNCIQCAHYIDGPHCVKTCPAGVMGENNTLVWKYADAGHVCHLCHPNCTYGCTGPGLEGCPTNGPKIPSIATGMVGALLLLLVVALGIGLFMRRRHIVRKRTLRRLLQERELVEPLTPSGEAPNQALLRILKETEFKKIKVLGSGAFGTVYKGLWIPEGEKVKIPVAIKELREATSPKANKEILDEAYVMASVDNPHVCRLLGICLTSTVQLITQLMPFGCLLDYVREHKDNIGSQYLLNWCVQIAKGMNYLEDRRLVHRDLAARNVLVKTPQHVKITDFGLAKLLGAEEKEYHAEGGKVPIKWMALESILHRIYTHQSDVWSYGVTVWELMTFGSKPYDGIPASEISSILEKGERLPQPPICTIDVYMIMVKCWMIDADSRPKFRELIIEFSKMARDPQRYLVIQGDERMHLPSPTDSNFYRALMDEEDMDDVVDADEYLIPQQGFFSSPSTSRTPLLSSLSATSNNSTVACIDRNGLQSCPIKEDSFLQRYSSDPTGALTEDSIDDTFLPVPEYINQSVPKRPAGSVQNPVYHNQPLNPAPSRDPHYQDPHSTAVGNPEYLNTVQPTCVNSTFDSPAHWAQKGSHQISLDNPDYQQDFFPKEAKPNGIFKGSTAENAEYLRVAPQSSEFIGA
Experimental for EGFR: Cells were then analyzed using the flow cytometer BD FACS Canto II and the results were interpreted with FlowJo7.6.4 software (Tree Star, Ashland, OR, 4. EGFR Kinase Inhibitory Activity
ADP-Glo™ Kinase Assay (Promega, Catalogue No. V3831) which is a luminescent kinase assay that measures ADP formed from a kinase reaction. ADP is converted into ATP which is converted into light by Ultra‐Glo™ Luciferase. The luminescent signal positively correlates with ADP amount and kinase activity.
Protocol: first dilute enzyme, substrate, ATP and inhibitors in Tyrosine Kinase Buffer (40 mM Tris,7.5; 20 mM MgCl2; 0.1 mg/ml BSA (bovine serum albumin); 2 mM MnCl2; 50μM DTT),
and 2 μl of substrate/ATP mix. Incubate at room temperature for 60 minutes, add 5 μl of ADP‐ Glo™ Reagent, incubate at room temperature for 40 minutes, add 10 μl of Kinase Detection reagent, incubate at room temperature for 30 minutes and finally record luminescence (Integration time 0.5‐1second).

As a reminder, the IC50 is the concentration that gives 50% inhibition. A higher IC50 goes with lower potency. `CN(C)c1ccc(C=C2SC(N3N=C(c4cccc5ccccc45)CC3c3ccc(Cl)cc3)=NC2=O)cc1` (stereo not shown) [Compound 9k]: the IC50 against EGFR worked out at 0.395 ± 0.017 µM. The compound also gave an IC50 with T-47D (Homo sapiens, T47D, 48 h) of 4.92 ± 0.28 µM. Also, in the assay on MDA-MB-231 cells [1], the “Late apoptosis (upper right %)” value was 20%, the “Early apoptosis (lower right %)” value was 14.22% and the “Total apoptosis (L.R % + U.R %)” value came to 34.22%. Moreover, in the assay on MCF-10A, 58.5 ± 4.36 µM corresponded to half-maximal inhibition (IC50). Also, in the assay on MDA-MB-231 cells [2], the “%Sub-G1” value came out at 27.86% and the “%S” value amounted to 28.45%. Moreover, in the assay on MDA-MB-231 cells [2] (control 53.45%), the “%G0-G1” value is 40.61%.
With `COc1cc(/C=C2/SC(N3N=C(c4cccc5ccccc45)CC3c3ccc(F)cc3)=NC2=O)ccc1O` (stereo not shown) [Compound 9h], the IC50 with T-47D (Homo sapiens, T47D, 48 h) was 11.4 ± 0.67 µM; in the assay on MDA-MB-231 (48 h exposure), 5.82 ± 0.317 µM; in the assay on MDA-MB-231 (setting [3]) it was under 10 µM; in the assay with MCF-10A it was 79.5 ± 5.27 µM.
Consider `COc1cc(/C=C2/SC(N3N=C(c4cccc5ccccc45)CC3c3ccc(Cl)cc3)=NC2=O)ccc1O` (stereo not shown) [Compound 9p], for which the IC50 in the assay with T-47D (Homo sapiens, T47D, 48 h) stood at 19.5 ± 0.92 µM; in the assay with MDA-MB-231 (48 h exposure) it was 6.55 ± 0.357 µM; in the assay on MDA-MB-231 (setting [3]), 10.8 ± 0.59 µM; in the assay with MCF-10A, 83.6 ± 6.74 µM.
Regarding `COc1ccc(/C=C2/SC(N3N=C(c4cccc5ccccc45)CC3c3ccc(Cl)cc3)=NC2=O)cc1` (stereo not shown) [Compound 9m], the IC50 came to 27.6 ± 1.24 µM in the assay on T-47D (Homo sapiens, T47D, 48 h) and 18.9 ± 1.03 µM with MDA-MB-231 (setting [3]).
With `C#Cc1cccc(Nc2ncnc3cc(OCCOC)c(OCCOC)cc23)c1` [Erlotinib, reference compound], the IC50 in the assay with T-47D (Homo sapiens, T47D) is 3.61 ± 0.24 µM; in the assay with MDA-MB-231 (Homo sapiens, MDA-MB-231, 48 h exposure), 2.88 ± 0.17 µM.
`COc1cccc(/C=C2/SC(N3N=C(c4cccc5ccccc45)CC3c3ccc(F)cc3)=NC2=O)c1O` (stereo not shown) [Compound 9f]: the IC50 in the assay with T-47D (Homo sapiens, T47D, 48 h) was found to be 27.1 ± 1.08 µM; in the assay on MCF-10A it was 42.6 ± 2.81 µM.
On to `COc1ccc(/C=C2/SC(N3N=C(c4cccc5ccccc45)CC3c3ccc(F)cc3)=NC2=O)cc1` (stereo not shown) [Compound 9e], for which the IC50 was 12.4 ± 0.33 µM in the assay on T-47D (Homo sapiens, T47D, 48 h) and 14.1 ± 0.77 µM with MDA-MB-231 (setting [3]).
On to `COc1ccccc1/C=C1/SC(N2N=C(c3cccc4ccccc34)CC2c2ccc(Cl)cc2)=NC1=O` (stereo not shown) [Compound 9l], for which the half-inhibitory concentration (IC50) in the assay with T-47D was over 100 µM; in the assay with T-47D (Homo sapiens, T47D, 48 h) it was over 100 µM; in the assay on MDA-MB-231 (setting [3]), 58 ± 3.16 µM. Further, in the assay with T-47D, the “IC50 T-47D” value was “inactive”.
In the case of `COc1ccccc1/C=C1/SC(N2N=C(c3cccc4ccccc34)CC2c2ccc(F)cc2)=NC1=O` (stereo not shown) [Compound 9d], the IC50 with T-47D is over 100 µM; in the assay on T-47D (Homo sapiens, T47D, 48 h), over 100 µM; in the assay with MDA-MB-231 (setting [3]), 45 ± 2.45 µM. The “IC50 T-47D” value with T-47D is “inactive”.
Turning to `O=C1N=C(N2N=C(c3cccc4ccccc34)CC2c2ccc(Cl)cc2)S/C1=C/c1ccc(O)cc1` (stereo not shown) [Compound 9j], the IC50 in the assay on T-47D (Homo sapiens, T47D, 48 h) is 35.1 ± 2.04 µM; in the assay on MDA-MB-231 (48 h exposure), 6.24 ± 0.34 µM; in the assay on MDA-MB-231 (setting [3]), under 10 µM; in the assay on MCF-10A, 65.4 ± 5.04 µM.
Take `COc1cccc(/C=C2/SC(N3N=C(c4cccc5ccccc45)CC3c3ccc(Cl)cc3)=NC2=O)c1O` (stereo not shown) [Compound 9n]: the IC50 in the assay with T-47D (Homo sapiens, T47D, 48 h) was 67.3 ± 2.51 µM; with MDA-MB-231 (setting [3]), 35.1 ± 1.92 µM.
Turning to `CN(C)c1ccc(/C=C2/SC(N3N=C(c4cccc5ccccc45)CC3c3ccc(F)cc3)=NC2=O)cc1` (stereo not shown) [Compound 9c], the IC50 in the assay with T-47D (Homo sapiens, T47D, 48 h) was 8.45 ± 0.27 µM; in the assay with MCF-10A, 47 ± 3.52 µM.
In the case of `O=C1N=C(N2N=C(c3cccc4ccccc34)CC2c2ccc(Cl)cc2)S/C1=C/c1ccccc1` (stereo not shown) [Compound 9i], the IC50 with T-47D was over 100 µM; in the assay with T-47D (Homo sapiens, T47D, 48 h) it was over 100 µM; in the assay on MDA-MB-231 (setting [3]), 24.7 ± 1.35 µM. Further, the “IC50 T-47D” value in the assay with T-47D was “inactive”.
Take `COc1ccc(C=C2SC(N3N=C(c4cccc5ccccc45)CC3c3ccc(F)cc3)=NC2=O)cc1O` (stereo not shown) [Compound 9g]: on EGFR, inhibition was half-maximal at 0.267 ± 0.012 µM (IC50). Moreover, the IC50 in the assay with T-47D (Homo sapiens, T47D, 48 h) was 3.14 ± 0.11 µM. For the same compound, in the assay with MDA-MB-231 cells [1], the “Late apoptosis (upper right %)” value turned out to be 23.93%, the “Early apoptosis (lower right %)” value came to 8.39% and the “Total apoptosis (L.R % + U.R %)” value is 32.32%. This compound also came in with an IC50 with MCF-10A of 31.7 ± 3.1 µM. Further, in the assay with MDA-MB-231 cells [2], the “%Sub-G1” value turned out to be 31.05% and the “%S” value amounted to 35.43%. Besides, in the assay with MDA-MB-231 cells [2] (control 12.31%), the “%G2/M” value was 2%.
For the compound `COc1cccc2c1C(=O)c1c(O)c3c(c(O)c1C2=O)C[C@@](O)(C(=O)CO)C[C@@H]3O[C@H]1C[C@H](N)[C@H](O)[C@H](C)O1` [Doxorubicin, reference compound], the IC50 was 2.73 ± 0.09 µM with T-47D (Homo sapiens, T47D, 48 h) and 3.67 ± 0.2 µM in the assay with MDA-MB-231 (setting [3]).
The matching figures for `COc1ccc(/C=C2/SC(N3N=C(c4cccc5ccccc45)CC3c3ccc(Cl)cc3)=NC2=O)cc1O` (stereo not shown) [Compound 9o]: 7.36 ± 0.3 µM and 10.8 ± 0.59 µM.
In the case of `O=C1N=C(N2N=C(c3cccc4ccccc34)CC2c2ccc(F)cc2)S/C1=C/c1ccccc1` (stereo not shown) [Compound 9a], the IC50 in the assay with T-47D is over 100 µM; in the assay on T-47D (Homo sapiens, T47D, 48 h), over 100 µM; in the assay on MDA-MB-231 (setting [3]), 19.8 ± 1.08 µM. Further, in the assay with T-47D, the “IC50 T-47D” value was “inactive”.
`O=C1N=C(N2N=C(c3cccc4ccccc34)CC2c2ccc(F)cc2)S/C1=C/c1ccc(O)cc1` (stereo not shown) [Compound 9b]: the IC50 in the assay with T-47D (Homo sapiens, T47D, 48 h) was 18.6 ± 0.87 µM; in the assay with MDA-MB-231 (setting [3]) it was 12.2 ± 0.67 µM.

The record behind these values is PMC9329325, “Design, synthesis, in vitro biological assessment and molecular modeling insights for novel 3-(naphthalen-1-yl)-4,5-dihydropyrazoles as anticancer agents with potential EGFR inhibitory activity” (Scientific Reports, 2022).
